Legend:
Type in all cases: physicochemical
[1] = Lipophilicity, logD of compound at pH 1.3 by shake flask method based 31P-NMR analysis; conditions: buffer
[2] = Basicity of hydrogen bond, pKHB of compound by IR spectroscopy
[3] = […]-water partition coefficient, logP of compound by shake flask method based 31P-NMR analysis; conditions: octanol/water
[4] = Octanol-water partition coefficient, logP of compound by shake flask method based 31P-NMR analysis
[5] = Lipophilicity, logD of compound at pH 3 by shake flask method based 31P-NMR analysis; conditions: buffer
[6] = Octanol-water partition coefficient, logP of compound at pH 1.3 by shake flask method based 31P-NMR analysis
[7] = Lipophilicity, logD of compound at pH 7.4 by shake flask method based 31P-NMR analysis; conditions: buffer

CCCCCCCC(O)(P(=O)(O)O)P(=O)(O)O
logD [1]: 0.6

CP(C)(C)=S
pKHB [2]: 1.533
logP [3]: -0.23

CCOP(=S)(OCC)Oc1ccccc1
logP [3]: 3.34

CCOP(=O)(OCC)c1ccccc1
logP [4]: 1.1

COP(=O)(OC)OC [TRIMETHYL PHOSPHATE]
logP [3]: -0.4

CCOP(=S)(OCC)c1ccccc1
logP [4]: 3.66

OCCCP(=[Se])(CCCO)CCCO
logP [3]: -0.9

CCCCCCC(O)(P(=O)(O)O)P(=O)(O)O
logD [1]: -0.08

C[C@@H]1C[C@H]2[C@@H]3CCC4=CC(=O)C=C[C@]4(C)[C@@]3(F)[C@@H](O)C[C@]2(C)[C@@]1(O)C(=O)COP(=O)(O)O [DEXAMETHASONE SODIUM PHOSPHATE]
logD [1]: 1.24

O=P(CCCO)(CCCO)CCCO
logP [3]: -2.49

CCOP(=O)(OCC)OCC [TRIETHYL PHOSPHATE]
pKHB [2]: 2.574

O=P(O)(O)C(O)(c1ccccc1F)P(=O)(O)O
logD [1]: -2.16
logD [5]: -3.25

CCOP(=S)(OCC)Oc1ccc(OC)cc1
logP [3]: 3.37

O=P(O)(O)C(O)(c1ccc(F)cc1)P(=O)(O)O
logD [1]: -1.57

CCNP(=O)(OCC)OCC
logP [3]: 0.54

CP(C)(C)=[Se]
pKHB [2]: 1.519
logP [3]: -0.02

CCCCCCCCCC(O)(P(=O)(O)O)P(=O)(O)O
logD [1]: 1.72

O=P(O)(O)C(O)(c1cc(F)c(F)c(F)c1)P(=O)(O)O
logD [1]: -0.69

O=P(O)(O)C(O)(c1ccccc1)P(=O)(O)O
logP [6]: -1.87

CC(C)OC(=O)OCOP(=O)(CO[C@H](C)Cn1cnc2c(N)ncnc21)OCOC(=O)OC(C)C [TENOFOVIR DISOPROXIL]
logD [1]: 1.26
logD [7]: 1.26

CCOP(=S)(OCC)SCC
logP [3]: 3.38

OCCCP(=S)(CCCO)CCCO
logP [3]: -1.2

CP(C)(C)=O
pKHB [2]: 3.444
logP [3]: -1.6

CCOP(=O)(OCC)Oc1ccc(OC)cc1
logP [3]: 2.14

CCOP(=O)(OCC)Oc1ccc([N+](=O)[O-])cc1 [PARAOXON]
logP [3]: 2.11

CCOP(=S)(OCC)Oc1ccc([N+](=O)[O-])cc1 [PARATHION]
logP [3]: 3.08

CCOP(=O)(OCC)SCC
pKHB [2]: 2.377
logP [3]: 1.42

CCOP(=O)(OCC)Oc1ccccc1 [PHOSPHORIC ACID DIETHYL ESTER PHENYL ESTER]
logP [3]: 2.07

Source: ChEMBL document CHEMBL5131543, “Studying Lipophilicity Trends of Phosphorus Compounds by 31P-NMR Spectroscopy: A Powerful Tool for the Design of P-Containing Drugs” (J Med Chem, 2022)
